Values after ≈ are worked out from the molar mass of the structure shown. Where two headings read alike, the source gives them in different places.
Key:
[1] = Photophysical properties (UV–Vis absorption and fluorescence spectra); type: physicochemical; details: for λabs absorption maximum wavelength / ∆λ stokes shifts (λem − λabs) / λem emission maximum wavelength / Φf fluorescence quantum yields: 2 µM; for λem emission maximum wavelength: excited at the maximum absorption wavelength; for Φf fluorescence quantum yields: n = 3, relative to fluorescein in 0.1 M NaOH
Experimental: All UV–Vis absorption and fluorescence spectra were recorded on a UV–Vis Spectrophotometer (Agilent Technologies Cary 300, Santa Clara, CA, USA) and a Spectrofluorometer (PerkinElmer LS55, Waltham, MA, USA), respectively. In both experiments, the stock solutions of chalcones 3a–f were prepared as 0.5 mM in DMSO. The appropriate amount of the stock solution was added to DMSO, MeOH, and 0.01 M PBS buffer (pH 7.4) with 3% Tween 80 (3 mL) to obtain the final concentration of 2 µM in the testing solutions. For fluorescence experiments, the emission spectra were recorded at the maximum absorbance wavelength of each compound. The fluorescent quantum yields (Φf) were calculated relative to fluorescein in 0.1 M NaOH as a standard (Φf = 0.95).

[2] = pH effect on fluorescence emission; type: physicochemical; details: 3% Tween 80
Experimental: Chalcones 3a–f (2 µM) were dissolved in commercial pH 1–12 buffers purchased from Merck (St. Louis, MO, USA) (glycine/NaCl/HCl for pH 1, citric acid/NaOH/HCl for pH 2–6, Na2HPO4/KH2PO4 for pH 7, boric acid/ KCl/NaOH for pH 8–11, Na3PO4/NaOH for pH 12) in the presence of Tween 80 (3% w/w). The actual pH values of the final buffer solutions were measured by a pH meter. The resulting solutions were examined by a Spectrofluorometer (PerkinElmer LS55) at the maximum absorbance wavelength of each compound.

[3] = Photo-stability test (photobleaching under 250 W blue light); type: physicochemical; details: DMSO, 250 W blue light (380–500 nm), after 30 min irradiation
Experimental: Chalcones 3a–f were dissolved in DMSO at the final concentration of 1 × 10^−6 M for measuring absorption and emission intensity. Then, 3a–f were irradiated at 250 W (blue-lamp) at a distance of 75 cm. The UV–Visible absorption and fluorescence spectra of the solutions were measured at different time points including 0, 1, 5, 10, 15, 20, and 30 min. Photo-stability was reported in terms of photobleaching absorption and emission (%) calculated from the change of absorption and emission intensity at the absorption and emission maxima before and after irradiation.

[4] = test system: HEK-293; assay: Cell viability MTT assay, normal cells; type: cell-based; details: Homo sapiens
Experimental: (§1) For fluorescence imaging of living cells, human embryonic kidney 293 (HEK-293, ATCC) and human hepatoma cancer cell (HepG2, ATCC) were cultured in Dulbecco′s Modified Eagle′s Medium (DMEM, HyClone) supplemented with 10% Fetal Bovine Serum (FBS, Gibco, Carlsbad, CA, USA) and 1% Penicillin/Streptomycin Solution 100X (Corning, Corning, NY, USA). All cells were cultured in a humidified incubator at 37 °C with 5% CO2. HEK-293 and HepG2 cells, approximately 1 × 10^4 cells, were seeded on 8-well chambered cover glasses (LabTek, Nunc, Carlsbad, CA, USA) and incubated in complete medium for 24 h. After that, the cells were treated with 5 μM stock solutions of 3a–f in DMSO/cell culture medium containing 10% FBS (0.25% DMSO), for 0, 1, 3, and 6 h. Then, the cells were washed twice with 0.01 M PBS before being visualized under a Laser-Scanning Confocal Microscope (Nikon A1Rsi) with a 60× oil immersion objective lens and living cell workstation with the excitation channel at 488 nm.
(§2) The cells were seeded on a 96-well plate, approximately 7 × 10^3 cells per well, and incubated in complete medium for 24 h. After that, the cells were treated with 0, 1, 5, 10, 20, and 50 μM of chalcones 3a–f, and culturing continued for 24 h. After incubation, the cells were washed three times with 10 mM PBS and treated with […] of methylthiazolyldiphenyl-tetrazolium bromide (MTT reagent, 0.5 mg mL^−1, Sigma-Aldrich, St. Louis, MO, USA) for 2–3 h. After medium removal, DMSO was added to dissolve the formazan product, and cell viability was determined by UV–Vis absorption of the resulting formazan at a wavelength of 560 nm in a microplate reader (BMG Labtech/SPECTROstar Nano, Ortenberg, Germany).

[5] = test system: HepG2; assay: Cell viability MTT assay, cancer cells; type: cell-based; details: Homo sapiens, HepG2, 24 h
Experimental: as §1, §2

[6] = test system: E. coli 780; assay: Antibacterial activity test (MIC, MBC, growth curve); type: cell-based, Escherichia coli; details: Escherichia coli
Experimental: (§3) All bacteria strains were obtained from the Thailand Institute of Scientific and Technological Research (TISTR). The antibacterial activity of chalcones 3a–f was determined by the minimal inhibitory concentration (MIC) and the minimal bactericidal concentration (MBC) against the Gram-positive (S. aureus 1466, TISTR 1466) and Gram-negative (E.coli 780, TISTR 780) bacteria. The stocks of chalcones 3a–f (0.60 mg/mL) were serially diluted in Muller–Hinton (MH) broth to obtain concentrations in the range of 250–1000 µM. The solutions of chalcones 3a–f (100 µL) at different concentrations were added in the culture of the tested bacteria (100 µL) at a concentration of 1 × 10^6 colony-forming units/mL (CFU/mL) in MH broth at 37 °C with shaking at 80 rpm. The bacterial numbers were determined by measuring the optical density at 600 nm by a UV–Vis spectrometer. […] To determine the MBC values, the bacterial cultures (10 µL) containing the solutions of chalcones 3a–f at MIC and three higher concentrations were dropped on MH agar plates.

[7] = test system: S. aureus 1466; assay: as above; type: cell-based, Staphylococcus aureus; details: Staphylococcus aureus
Experimental: as §3

SMILES	ε molar absorptivity ([1]; DMSO) [M⁻¹ cm⁻¹]	λabs absorption maximum wavelength ([1]; DMSO) [nm]	∆λ stokes shifts (λem − λabs) ([1]; DMSO) [nm]	λem emission maximum wavelength ([1]; DMSO) [nm]	Φf fluorescence quantum yields ([1]; DMSO)	ε molar absorptivity ([1]; MeOH) [M⁻¹ cm⁻¹]	λabs absorption maximum wavelength ([1]; MeOH) [nm]	∆λ stokes shifts (λem − λabs) ([1]; MeOH) [nm]	λem emission maximum wavelength ([1]; MeOH) [nm]	Φf fluorescence quantum yields ([1]; MeOH)	ε molar absorptivity ([1]; PBS (3%w/w tween 80)) [M⁻¹ cm⁻¹]	λabs absorption maximum wavelength ([1]; PBS (3%w/w tween 80)) [nm]	∆λ stokes shifts (λem − λabs) ([1]; PBS (3%w/w tween 80)) [nm]	λem emission maximum wavelength ([1]; PBS (3%w/w tween 80)) [nm]	Φf fluorescence quantum yields ([1]; PBS (3%w/w tween 80))	% photobleaching of absorbance [3] [%]	% photobleaching of fluorescence [3] [%]	other results
CN(C)c1ccc(/C=C/C(=O)c2ccc(O)cc2)cc1 [3c]	10000	413	107	520	0.61 ± 0.04	10000	414	132	546	0.017 ± 0.011	13000	411	115	526	0.11 ± 0.02	37	50	fluorescence emission ([2]; basic conditions (pH 9–12), 2 µM): reduced emission signals; IC50 ([4]; HEK293, 24 h): > 100 µM; IC50 [5]: 100 µM; MBC [6]; 780: 750 ± 0.01 µM (≈ 200 µg/mL); MIC [6]; 780: 250 ± 0.01 µM (≈ 66.8 µg/mL); MBC [7]; 1466: 1000 ± 0.01 µM (≈ 267 µg/mL); MIC [7]; 1466: 375 ± 0.01 µM (≈ 100 µg/mL)
CN(C)c1ccc(/C=C/C(=O)c2cccs2)cc1 [3b]	31000	431	129	560	0.34 ± 0.04	29000	428	139	567	0.012 ± 0.007	37000	427	93	520	0.11 ± 0.02	26	43	fluorescence emission ([2]; pH range from 2 to 12, 2 µM): Higher emission peaks; IC50 ([4]; HEK293, HEK-293, 24 h, MTT, read-out: IC50): > 100 µM; IC50 ([5]; MTT, read-out: IC50): 45 µM; MBC ([6]; E. coli 780, mean ± SD of three independent experiments, read-out: MBC): 750 ± 0.02 µM (≈ 193 µg/mL); MIC ([6]; E. coli 780, mean ± SD of three independent experiments, read-out: MIC): 250 ± 0.02 µM (≈ 64.3 µg/mL); MBC ([7]; S. aureus 1466, mean ± SD of three independent experiments, read-out: MBC): 1000 ± 0.01 µM (≈ 257 µg/mL); MIC ([7]; S. aureus 1466, mean ± SD of three independent experiments, read-out: MIC): 375 ± 0.01 µM (≈ 96.5 µg/mL)
